Data on three molecules can be found in patent US7235678B2 (priority 2004, dated 2007).

Converted amounts (≈) assume the structure as drawn.

The test system of test [1] is Candida albicans (5 isolates). The test is described as follows: Antibiotic inhibition assay using disc method, C. albicans isolates. Format: cell-based.
In a further test the test system is Yarrowia lipolytica. The test is described as follows: Antibiotic inhibition assay using disc method, Y. lipolytica. In kind it is cell-based. The conditions noted are these: for MIC: 28° C.
In test [2] the test system is Candida albicans (5 isolates), Benjaminiella poitrasii and Yarrowia lipolytica. Kind of test: Antibiotic inhibition assay using disc method, all fungi tested together. Format: cell-based. The settings on record: for antifungal activity (in words): Candida albicans (five isolates), Benjaminiella poitrasii and Yarrowia lipolytica, compared with cycloheximide; for MIC: all five C. albicans isolates, B. poitrassi and Y. lipolytica.

In another test the test system is Benjaminiella poitrasii. Kind of test: microbe, parasite or virus in culture. Format: cell-based. The settings on record: B. poitrassi, disc method; for MIC: 28° C.
For test [3], the system named is clinical isolate of C. albicans. The settings on record: microtitre dilution broth assay; cited from earlier work.
Where [4] appears, read: C. albicans, Isolate no. 1, disc method.
[5] abbreviates: C. albicans, Isolate no. 1, disc method, 28° C., 24 hours.
Setting [6] is: C. albicans, Isolate no. 2, disc method.
Setting [7] is: C. albicans, Isolate no. 2, disc method, 28° C., 24 hours.
Where [8] appears, read: C. albicans, Isolate no. 3, disc method.
The mark [9] stands for this setting: C. albicans, Isolate no. 3, disc method, 28° C., 24 hours.
The mark [10] stands for this setting: C. albicans, Isolate no. 4, disc method.
Where [11] appears, read: C. albicans, Isolate no. 4, disc method, 28° C., 24 hours.
The mark [12] stands for this setting: C. albicans, Isolate no. 5, disc method.
[13] abbreviates: C. albicans, Isolate no. 5, disc method, 28° C., 24 hours.

For `CC(CCC(=O)NCCNCCNC(=O)CCC(C)C1CCC2C3C(O)CC4CC(O)CCC4(C)C3CC(O)C12C)C1CCC2C3C(O)CC4CC(O)CCC4(C)C3CC(O)C12C` (stereo not drawn) [Compound (1), N^1,N^3-Diethylenetriaminebis [cholic acid amide]], the “Inhibition Zone” value in test [1] (setting [4]) turned out to be 0.8 cm; in test [1] (setting [6]), 0.8 cm; in test [1] (setting [8]), 0.8 cm; in test [1] (setting [10]) it was 0.8 cm; in test [1] (setting [12]) it was 0.8 cm; with Yarrowia lipolytica it was 0.9 cm. Besides, in the test with Benjaminiella poitrasii, the “Inhibition Zone” value is 0.7 cm. Besides, the MIC (in test [1] (setting [5]); in test [1] (setting [7]); in test [1] (setting [9]); in test [1] (setting [11]); in test [1] (setting [13]); against Yarrowia lipolytica (24 hours)) was 0.01132 µM (≈ 0.01 µg/mL) throughout. Also, the MIC (in test [2]; in the test on Benjaminiella poitrasii (24 hours)) was 0.01132 µM (≈ 0.01 µg/mL) each time. Besides, the “antifungal activity (in words)” value in test [2] is reported as “very good antifungal activity”. Further, the “minimum inhibitory concentration (MIC)” value in test [2] (summary in description, fungi not specified) is on record as “about 11.30 nM”.

On to “N^1,N^3-Diethylenetriaminebis [Compound (2), N^1,N^3-Diethylenetriaminebis [deoxycholic acid amide]]”, for which the “Inhibition Zone” value in test [1] (setting [4]) was determined as 0.9 cm; in test [1] (setting [6]), 0.7 cm; in test [1] (setting [8]) it was 1.0 cm; in test [1] (setting [10]), 0.8 cm; in test [1] (setting [12]) it was 0.9 cm; in the test with Yarrowia lipolytica it was 0.8 cm. Also, the “Inhibition Zone” value with Benjaminiella poitrasii turned out to be 0.6 cm. In addition, the MIC in test [1] (setting [5]) turned out to be 0.01175 µM; in test [1] (setting [7]), 0.01175 µM; in test [1] (setting [9]) it was 0.01175 µM; in test [1] (setting [11]), 0.01175 µM; in test [1] (setting [13]), 0.01763 µM; against Yarrowia lipolytica (24 hours), 0.0235 µM. Moreover, the values for the MIC (in test [2]; in the test on Benjaminiella poitrasii (24 hours)) were 0.01 to 0.025 µM and 0.01763 µM, respectively. The “antifungal activity (in words)” value in test [2] is reported as “moderate antifungal activity”.

For `C[C@@H]1C[C@@H]([C@H](O)CC2CC(=O)NC(=O)C2)C(=O)[C@@H](C)C1` [Cycloheximide, reference compound], the “Inhibition Zone” value came out at 1.0 cm in test [1] (setting [4]); 0.9 cm in test [1] (setting [6]); 0.9 cm in test [1] (setting [8]); 1.0 cm in test [1] (setting [10]); 0.8 cm in test [1] (setting [12]); 0.9 cm with Yarrowia lipolytica. Also, in the test with Benjaminiella poitrasii, the “Inhibition Zone” value came to 1.45 cm. Besides, the MIC was 0.356 µM (≈ 0.1 µg/mL) in test [1] (Candida albicans, 24 h, C. albicans, Isolate no. 1, disc method, 28° C.); 0.539 µM (≈ 0.152 µg/mL) in test [1] (Candida albicans, 24 h, C. albicans, Isolate no. 2, disc method, 28° C.); 0.267 µM (≈ 0.0751 µg/mL) in test [1] (Candida albicans, 24 h, C. albicans, Isolate no. 3, disc method, 28° C.); 0.534 µM (≈ 0.15 µg/mL) in test [1] (Candida albicans, 24 h, C. albicans, Isolate no. 4, disc method, 28° C.); 0.534 µM (≈ 0.15 µg/mL) in test [1] (Candida albicans, 24 h, C. albicans, Isolate no. 5, disc method, 28° C.); 0.25 to 0.5 µM (≈ 0.0703 to 0.141 µg/mL) in test [1] (Candida albicans, isolates of C. albicans, range over isolates). Besides, the MIC against Yarrowia lipolytica (24 hours) is 0.1068 µM (≈ 0.03 µg/mL); with Yarrowia lipolytica (Yarrowia lipolytica, 24 h) it was 0.106 µM (≈ 0.0298 µg/mL); in test [3], “greater than 900 nM”; in the test with Benjaminiella poitrasii (24 hours), 0.0712 µM (≈ 0.02 µg/mL); in the test on Benjaminiella poitrasii (Benjaminiella poitrasii, 24 h) it was 0.071 µM (≈ 0.02 µg/mL).
